Laboratory results taken from ChEMBL document CHEMBL1130841, “Evaluation of phosphorus-containing inhibitors of gamma-glutamyl hydrolase” (Bioorg Med Chem Lett, 1998).

Experiments:
Gamma-glutamyl hydrolase = biological target: T1, Gamma-glutamyl hydrolase (Homo sapiens, UniProt Q92820); assay: Compound was tested for inhibitory potency against gamma-Glutamyl Hydrolase.
T1 sequence (Q92820 whole entry): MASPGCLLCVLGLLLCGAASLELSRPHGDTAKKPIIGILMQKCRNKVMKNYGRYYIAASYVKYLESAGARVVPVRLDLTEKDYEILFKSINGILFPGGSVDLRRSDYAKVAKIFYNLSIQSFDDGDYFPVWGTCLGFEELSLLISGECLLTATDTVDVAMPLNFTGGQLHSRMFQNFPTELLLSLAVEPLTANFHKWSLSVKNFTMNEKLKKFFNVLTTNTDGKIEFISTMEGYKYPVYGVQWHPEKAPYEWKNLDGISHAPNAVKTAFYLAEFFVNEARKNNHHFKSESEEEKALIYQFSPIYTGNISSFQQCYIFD

[1] = Dissociation constant was evaluated.; format: physicochemical
[2] = Phosphorylation rate constant was evaluated.; format: ADME

SMILES | Ki (Gamma-glutamyl hydrolase) | Kd [1] | kp [2]
O=C(O)CC[C@H](NP(=O)(O)c1ccccc1)C(=O)O | 0.95 nM |  | 
COP(=O)(N[C@@H](CCC(=O)O)C(=O)O)OC | 10.9 M⁻¹ | 0.223 M⁻¹ | 2.42 min⁻¹
COP(=O)(N[C@@H](CCC(=O)O)C(=O)O)c1ccccc1 (some centres not stated) | 0.264 M⁻¹ | 27.4 M⁻¹ | 7.24 min⁻¹
